Assay results from US9447157B2, “Nitration shielding peptides and methods of use thereof” (Augusta University Research Institute, Inc., priority 2013, dated 2016).

Key:
PKG-1α [1] = biological target: T1, PKG-1α (Homo sapiens, UniProt Q13976); test: PKG-1α nitration (IP, 3-NT blot) in transfected HEK-293T cells; format: cell-based; conditions: HEK-293T expressing WT-PKG-1α, SIN-1 500 μM 30 min
T1 construct: transfected with an expression plasmid containing a full length WT-PKG-1α cDNA; made in house; host or cells: HEK-293T (methods); the results paragraph b527 says PASMC
T1 sequence (Q13976 2-671): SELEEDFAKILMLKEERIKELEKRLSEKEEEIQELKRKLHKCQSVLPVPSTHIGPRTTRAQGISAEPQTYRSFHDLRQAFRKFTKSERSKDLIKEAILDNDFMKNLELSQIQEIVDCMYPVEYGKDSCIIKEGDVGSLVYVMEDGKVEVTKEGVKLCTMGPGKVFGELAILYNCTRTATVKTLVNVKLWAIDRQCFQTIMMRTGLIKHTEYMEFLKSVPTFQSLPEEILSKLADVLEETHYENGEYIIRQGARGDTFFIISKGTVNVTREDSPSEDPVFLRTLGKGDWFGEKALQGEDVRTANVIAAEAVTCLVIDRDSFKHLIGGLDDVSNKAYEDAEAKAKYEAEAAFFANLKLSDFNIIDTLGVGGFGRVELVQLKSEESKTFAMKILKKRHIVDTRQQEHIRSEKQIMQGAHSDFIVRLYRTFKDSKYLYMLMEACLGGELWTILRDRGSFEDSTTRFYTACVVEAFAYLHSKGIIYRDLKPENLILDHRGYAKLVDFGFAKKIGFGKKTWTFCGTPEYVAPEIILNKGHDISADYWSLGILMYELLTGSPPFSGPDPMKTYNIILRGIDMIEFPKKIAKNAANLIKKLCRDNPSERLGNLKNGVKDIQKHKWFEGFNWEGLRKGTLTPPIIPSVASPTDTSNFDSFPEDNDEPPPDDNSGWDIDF
Description: (§1) Cells were homogenized in 3× weight/volume of IP buffer (25 mM Hepes, pH 7.5, 150 mM NaCl, 1% NP-40, 10 mM MgCl2, 1 mM EDTA, 2% glycerol, supplemented with protease inhibitor). The homogenates were then centrifuged at 20,000 g at 4° C. for 20 min, the supernatant was collected, and the protein concentration was quantified by the Bio-Rad DC Protein Assay. To 1000 μg of total protein, 4 μg of antibody against PKG-1α was added; the volume was brought to 1 ml with IP buffer, and the mixture was nutated at 4° C. overnight. To precipitate the bound protein, 30 μl of protein G plus agarose suspension (EMD biosciences, Inc., San Diego, Calif.) was added, and the samples were nutated for 2 h at 4° C. To collect the bead-bound antibody, the samples were then centrifuged at 2000 g for 5 min at 4° C., the supernatant was removed, and the beads were washed 3× with 500 μl of IP buffer. […]
(§2) To determine the role of tyrosine 247 and tyrosine 425 in mediating the nitration dependent inhibition of PKG-1α kinase activity, Y247F- and Y425F-PKG-1α mutants were generated and expressed in HEK-293T cells. […] Protein extracts were immunoprecipitated using an antibody raised against PKG-1α and the level of nitrated PKG-1α determined by probing the membranes with an antiserum raised against 3-NT. […]

PKG-1α [2] = test: as above; format: cell-based, human; conditions: HEK-293T expressing Y247F- or Y425F-PKG-1α, SIN-1 500 μM 30 min
Description: as §1, §2

PKG-1α [3] = test: PKG activity in transfected HEK-293T cells; format: cell-based, human; conditions: SIN-1 500 μM 30 min
Description: To determine the role of tyrosine 247 and tyrosine 425 in mediating the nitration dependent inhibition of PKG-1α kinase activity, Y247F- and Y425F-PKG-1α mutants were generated and expressed in HEK-293T cells. HEK-293T cells were transiently transfected with expression plasmids containing WT-, Y247F-, or Y425F-PKG-1α for 48 h. Cells were also treated or not with SIN-1 (500 μM, 30 min). Protein extracts were immunoprecipitated using an antibody raised against PKG-1α and the level of nitrated PKG-1α determined by probing the membranes with an antiserum raised against 3-NT. The blots were then stripped and re-probed for PKG-1α to normalize for the efficiency of the immunoprecipitation.
Measurement of PKG Catalytic Activity Total PKG activity was determined using a non-radioactive immunoassay in cell lysates, according to the manufacturer's directions. […]
After incubation for 30 min at 30° C. to allow the phosphorylation of the bound substrate, an HRP conjugated anti-phosphothreonine specific antibody was added to convert a chromogenic substrate to a colorimetric substrate that was subsequently read spectrophotometrically at 450 nm. The change in absorbance reflected the relative activity of PKG in the sample. […] The kinetic constants were determined using nonlinear regression (curve fit) analysis (GraphPad Prism Software Inc).

[4] = tested on: Pulmonary artery smooth muscle cells (PASMC); test: PASMC cell growth (cell count); format: cell-based, lamb; conditions: SIN-1 500 μM 48 h
Description: Pulmonary artery smooth muscle cells (PASMC) were grown on a 10 cm dish to 75% confluence, transfected with WT-PKG-1α or Y247F-PKG-1α cDNA using a Qiagen transfection kit, according to manufacturer's instructions, and incubated at 37° C. for 20 h. […] The cells were then trypsinized, seeded onto a 6-well plate at a density of 2.5×10^4 cells per well, and grown for an additional 4 h in serum-free DMEM growth medium containing 1% FBS and antibiotics. The cells were then treated with or without SIN-1 (500 μM) and allowed to grow at 37° C. in the incubator for an additional 48 h. The cellular proliferation was evaluated by counting the cells with a hemacytometer (Cascade Biologicals™, Portland, Oreg.) after the trypsinization of the PASMC monolayers.

Nitration of WT-PKG-1α (PKG-1α [1]): significantly increased
Substance: 3-morpholinosydnonimine N-ethylcarbamide [SIN-1]
Nitration levels of Y247F- or Y425F-PKG-1α (PKG-1α [2]): no significant increases
cGMP dependent PKG activity, WT- and Y425F-PKG-1α cells (PKG-1α [3]; HEK-293T expressing WT- and Y425F-PKG-1α): attenuated
cGMP-independent PKG activity (PKG-1α [3]; transfected HEK-293T): did not alter
Proliferation, WT-PKG-1α transfected PASMC [4]: stimulated
